The values that follow come from PubChem BioAssay AID1259407 (Chemical Carcinogenesis Research Information System (CCRIS), 2018).

The data set deals with CCRIS mutagenicity, Ames/micronucleus/aberration tests. Nature of the data set: CCRIS mutagenicity studies.
Setting [1] is: Test System: AMES SALMONELLA TYPHIMURIUM, Strain/Indicator: TA98, Metabolic Activation: HAMSTER, LIVER, S-9, AROCLOR 1254 (10%), Method: PREINCUBATION
Where [2] appears, read: Test System: AMES SALMONELLA TYPHIMURIUM, Strain/Indicator: TA98, Metabolic Activation: NONE, Method: PREINCUBATION
Setting [3] is: Test System: AMES SALMONELLA TYPHIMURIUM, Strain/Indicator: TA98, Metabolic Activation: RAT, LIVER, S-9, AROCLOR 1254 (10%), Method: PREINCUBATION
The mark [4] stands for this setting: Test System: AMES SALMONELLA TYPHIMURIUM, Strain/Indicator: TA100, Metabolic Activation: HAMSTER, LIVER, S-9, AROCLOR 1254 (10%), Method: PREINCUBATION
[5] abbreviates: Test System: AMES SALMONELLA TYPHIMURIUM, Strain/Indicator: TA100, Metabolic Activation: NONE, Method: PREINCUBATION
Setting [6] is: Test System: AMES SALMONELLA TYPHIMURIUM, Strain/Indicator: TA1535, Metabolic Activation: HAMSTER, LIVER, S-9, AROCLOR 1254 (10%), Method: PREINCUBATION
Setting [7] is: Test System: AMES SALMONELLA TYPHIMURIUM, Strain/Indicator: TA1535, Metabolic Activation: NONE, Method: PREINCUBATION
Where [8] appears, read: Test System: AMES SALMONELLA TYPHIMURIUM, Strain/Indicator: TA1535, Metabolic Activation: RAT, LIVER, S-9, AROCLOR 1254 (10%), Method: PREINCUBATION
[9] abbreviates: Test System: AMES SALMONELLA TYPHIMURIUM, Strain/Indicator: TA1537, Metabolic Activation: HAMSTER, LIVER, S-9, AROCLOR 1254 (10%), Method: PREINCUBATION
Setting [10] is: Test System: AMES SALMONELLA TYPHIMURIUM, Strain/Indicator: TA1537, Metabolic Activation: NONE, Method: PREINCUBATION
Where [11] appears, read: Test System: AMES SALMONELLA TYPHIMURIUM, Strain/Indicator: TA1537, Metabolic Activation: RAT, LIVER, S-9, AROCLOR 1254 (10%), Method: PREINCUBATION

Activity calls are given as the source filed them. The rule behind the calls is not given here.

On to `CN(C)C(=O)c1nc(CNC(=O)CN)n(-c2ccc(Cl)cc2C(=O)c2ccccc2Cl)n1`, for which the mutagenic call runs as follows: (Test System: AMES SALMONELLA TYPHIMURIUM, Strain/Indicator: TA98, Metabolic Activation: NONE, Method: STANDARD PLATE) “inactive; negative”; (Test System: AMES SALMONELLA TYPHIMURIUM, Strain/Indicator: TA98, Metabolic Activation: RAT, LIVER, S-9, AROCLOR 1254, Method: STANDARD PLATE) “inactive; negative”; (Test System: AMES SALMONELLA TYPHIMURIUM, Strain/Indicator: TA100, Metabolic Activation: NONE, Method: STANDARD PLATE) “inactive; negative”; (Test System: AMES SALMONELLA TYPHIMURIUM, Strain/Indicator: TA100, Metabolic Activation: RAT, LIVER, S-9, AROCLOR 1254, Method: STANDARD PLATE) “inactive; negative”; (Test System: AMES SALMONELLA TYPHIMURIUM, Strain/Indicator: TA102, Metabolic Activation: NONE, Method: STANDARD PLATE) “inactive; negative”; (Test System: AMES SALMONELLA TYPHIMURIUM, Strain/Indicator: TA102, Metabolic Activation: RAT, LIVER, S-9, AROCLOR 1254, Method: STANDARD PLATE) “inactive; negative”. Moreover, the mutagenic call (Test System: AMES SALMONELLA TYPHIMURIUM, Strain/Indicator: TA1535, Metabolic Activation: NONE, Method: STANDARD PLATE) is “inactive; negative”; the mutagenic call (Test System: AMES SALMONELLA TYPHIMURIUM, Strain/Indicator: TA1535, Metabolic Activation: RAT, LIVER, S-9, AROCLOR 1254, Method: STANDARD PLATE) was “inactive; negative”; the mutagenic call (Test System: AMES SALMONELLA TYPHIMURIUM, Strain/Indicator: TA1537, Metabolic Activation: NONE, Method: STANDARD PLATE) was “inactive; negative”; the mutagenic call (Test System: AMES SALMONELLA TYPHIMURIUM, Strain/Indicator: TA1537, Metabolic Activation: RAT, LIVER, S-9, AROCLOR 1254, Method: STANDARD PLATE) is “inactive; negative”; the mutagenic call (Test System: E. COLI, Strain/Indicator: WP2 UVRA, Metabolic Activation: NONE, Method: STANDARD PLATE) was “inactive; negative”; the mutagenic call (Test System: E. COLI, Strain/Indicator: WP2 UVRA, Metabolic Activation: RAT, LIVER, S-9, AROCLOR 1254, Method: STANDARD PLATE) is “inactive; negative”.
On to `O=c1ccc2ccccc2o1`, for which the mutagenic call was “inactive; negative” (End Point: IN VITRO CHROMOSOMAL ABERRATIONS, Test System: CHINESE HAMSTER OVARY CELLS, Metabolic Activation: NONE); “active; positive” (End Point: IN VITRO CHROMOSOMAL ABERRATIONS, Test System: CHINESE HAMSTER OVARY CELLS, Metabolic Activation: RAT, LIVER, S-9, AROCLOR 1254); “inactive; negative” (End Point: IN VIVO MICRONUCLEUS, Test System: BONE MARROW CELLS, Species: MOUSE, Strain/Sex: SWISS/MALE, FEMALE, Route: GAVAGE); “inactive; negative” under setting [1]; “inactive; negative” (Test System: AMES SALMONELLA TYPHIMURIUM, Strain/Indicator: TA98, Metabolic Activation: NONE, Method: FLUCTUATION (MICROTITER)); “inactive; negative” under setting [2]. The mutagenic call by setting is: (Test System: AMES SALMONELLA TYPHIMURIUM, Strain/Indicator: TA98, Metabolic Activation: RAT LIVER S-9, AROCLOR 1254, Method: FLUCTUATION (MICROTITER)) “inactive; negative”; under setting [3], “inactive; negative”; under setting [4], “active; positive”; under setting [5], “inactive; negative”; under setting [6], “inactive; negative”; under setting [7], “inactive; negative”. For the same compound, the mutagenic call by setting is: under setting [8], “inactive; negative”; under setting [9], “inactive; negative”; (Test System: AMES SALMONELLA TYPHIMURIUM, Strain/Indicator: TA1537, Metabolic Activation: NONE, Method: FLUCTUATION (MICROTITER)) “inactive; negative”; under setting [10], “inactive; negative”; (Test System: AMES SALMONELLA TYPHIMURIUM, Strain/Indicator: TA1537, Metabolic Activation: RAT LIVER S-9, AROCLOR 1254, Method: FLUCTUATION (MICROTITER)) “inactive; negative”; under setting [11], “inactive; negative”. For the same compound, the mutagenic call (Test System: AMES SALMONELLA TYPHIMURIUM, Strain/Indicator: TA7001, Metabolic Activation: NONE, Method: FLUCTUATION (MICROTITER)) is “inactive; negative”; the mutagenic call (Test System: AMES SALMONELLA TYPHIMURIUM, Strain/Indicator: TA7001, Metabolic Activation: RAT LIVER S-9, AROCLOR 1254, Method: FLUCTUATION (MICROTITER)) was “inactive; negative”; the mutagenic call (Test System: AMES SALMONELLA TYPHIMURIUM, Strain/Indicator: TA7002, Metabolic Activation: NONE, Method: FLUCTUATION (MICROTITER)) is “inactive; negative”; the mutagenic call (Test System: AMES SALMONELLA TYPHIMURIUM, Strain/Indicator: TA7002, Metabolic Activation: RAT LIVER S-9, AROCLOR 1254, Method: FLUCTUATION (MICROTITER)) was “active; positive”; the mutagenic call (Test System: AMES SALMONELLA TYPHIMURIUM, Strain/Indicator: TA7003, Metabolic Activation: NONE, Method: FLUCTUATION (MICROTITER)) is “inactive; negative”; the mutagenic call (Test System: AMES SALMONELLA TYPHIMURIUM, Strain/Indicator: TA7003, Metabolic Activation: RAT LIVER S-9, AROCLOR 1254, Method: FLUCTUATION (MICROTITER)) was “inactive; negative”. Besides, the mutagenic call runs as follows: (Test System: AMES SALMONELLA TYPHIMURIUM, Strain/Indicator: TA7004, Metabolic Activation: NONE, Method: FLUCTUATION (MICROTITER)) “inactive; negative”; (Test System: AMES SALMONELLA TYPHIMURIUM, Strain/Indicator: TA7004, Metabolic Activation: RAT LIVER S-9, AROCLOR 1254, Method: FLUCTUATION (MICROTITER)) “inactive; negative”; (Test System: AMES SALMONELLA TYPHIMURIUM, Strain/Indicator: TA7005, Metabolic Activation: NONE, Method: FLUCTUATION (MICROTITER)) “inactive; negative”; (Test System: AMES SALMONELLA TYPHIMURIUM, Strain/Indicator: TA7005, Metabolic Activation: RAT LIVER S-9, AROCLOR 1254, Method: FLUCTUATION (MICROTITER)) “inactive; negative”; (Test System: AMES SALMONELLA TYPHIMURIUM, Strain/Indicator: TA7006, Metabolic Activation: NONE, Method: FLUCTUATION (MICROTITER)) “inactive; negative”; (Test System: AMES SALMONELLA TYPHIMURIUM, Strain/Indicator: TA7006, Metabolic Activation: RAT LIVER S-9, AROCLOR 1254, Method: FLUCTUATION (MICROTITER)) “inactive; negative”. In addition, under “Test System: UDS HUMAN HEPATOCYTES, Strain/Indicator: THY INCORP, Metabolic Activation: NONE, Method: AUTORADIOGRAPHY”, the mutagenic call was “inactive; negative”.
For the compound `N#CCBr`, the mutagenic call is “inactive; negative” under setting [1]; “inactive; negative” under setting [2]; “inactive; negative” under setting [3]; “inactive; negative” under setting [4]; “inactive; negative” (Test System: AMES SALMONELLA TYPHIMURIUM, Strain/Indicator: TA100, Metabolic Activation: NONE, Method: FLUCTUATION TEST); “inactive; negative” under setting [5]. Further, the mutagenic call by setting is: (Test System: AMES SALMONELLA TYPHIMURIUM, Strain/Indicator: TA100, Metabolic Activation: RAT, LIVER, S-9, AROCLOR 1254 (10%), Method: PREINCUBATION) “inactive; negative”; (Test System: AMES SALMONELLA TYPHIMURIUM, Strain/Indicator: TA100, Metabolic Activation: RAT, LIVER, S-9, AROCLOR 1254, Method: FLUCTUATION TEST) “active; positive”; under setting [6], “inactive; negative”; under setting [7], “inactive; negative”; under setting [8], “inactive; negative”; under setting [9], “inactive; negative”. Besides, the mutagenic call under setting [10] was “inactive; negative” and the mutagenic call under setting [11] is “inactive; negative”.
